Data on one molecule can be found in PMC7026498, “GABAA Receptor β2E155 Residue Located at the Agonist-Binding Site Is Involved in the Receptor Gating” (Frontiers in Cellular Neuroscience, 2020).

Assay [1] deals with T1, GABAA receptor α1β2E155Cγ2L (β2 subunit) (Rattus norvegicus, UniProt P62813+P63138, P63138:E179C).
T1 construct: gene Gabrb2; recombinant α1β2E155Cγ2L receptor in HEK293 cells; with GABAA receptor α1 and γ2L subunits
In words: whole-cell patch-clamp dose-response (extrapolated Hill fit) and single-channel recording. The format is cell-based.

The target of assay [2] is T2, GABAA receptor α1β2γ2L (β2 subunit) (Rattus norvegicus, UniProt P62813+P63138).
T2 construct: gene Gabrb2; recombinant α1β2γ2L receptor in HEK293 cells; with GABAA receptor α1 and γ2L subunits
The assay can be described thus: whole-cell patch-clamp dose-response. The format is cell-based. Background: The patch-clamp technique gives a direct electrical read-out from membranes.

T1 sequence (P63138 26-474 E179C): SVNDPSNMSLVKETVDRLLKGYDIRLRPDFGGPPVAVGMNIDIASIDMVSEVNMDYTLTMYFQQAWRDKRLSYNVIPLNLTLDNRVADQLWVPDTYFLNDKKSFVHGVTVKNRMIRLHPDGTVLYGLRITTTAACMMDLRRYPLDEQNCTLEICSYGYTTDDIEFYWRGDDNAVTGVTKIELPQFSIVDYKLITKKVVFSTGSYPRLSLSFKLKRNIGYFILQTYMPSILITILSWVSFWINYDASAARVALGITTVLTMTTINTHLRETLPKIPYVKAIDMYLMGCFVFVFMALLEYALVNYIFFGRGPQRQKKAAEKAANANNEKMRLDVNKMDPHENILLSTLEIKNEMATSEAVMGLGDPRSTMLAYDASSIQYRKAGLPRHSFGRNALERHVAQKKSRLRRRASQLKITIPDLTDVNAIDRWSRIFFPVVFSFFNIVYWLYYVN
T1 sequence (P62813 28-455): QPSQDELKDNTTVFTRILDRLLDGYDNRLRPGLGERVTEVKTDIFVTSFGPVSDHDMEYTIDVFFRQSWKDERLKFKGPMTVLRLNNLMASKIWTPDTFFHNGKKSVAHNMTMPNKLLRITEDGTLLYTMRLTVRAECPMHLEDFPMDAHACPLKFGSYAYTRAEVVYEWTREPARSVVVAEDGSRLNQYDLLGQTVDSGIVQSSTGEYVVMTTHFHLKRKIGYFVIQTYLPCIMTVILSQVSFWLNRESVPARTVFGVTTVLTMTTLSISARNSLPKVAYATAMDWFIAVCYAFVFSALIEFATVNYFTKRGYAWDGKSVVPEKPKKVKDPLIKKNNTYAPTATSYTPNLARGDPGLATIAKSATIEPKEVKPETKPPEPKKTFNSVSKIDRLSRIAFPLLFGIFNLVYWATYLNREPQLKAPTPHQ
T1 sequence (P18508 39-466 partner): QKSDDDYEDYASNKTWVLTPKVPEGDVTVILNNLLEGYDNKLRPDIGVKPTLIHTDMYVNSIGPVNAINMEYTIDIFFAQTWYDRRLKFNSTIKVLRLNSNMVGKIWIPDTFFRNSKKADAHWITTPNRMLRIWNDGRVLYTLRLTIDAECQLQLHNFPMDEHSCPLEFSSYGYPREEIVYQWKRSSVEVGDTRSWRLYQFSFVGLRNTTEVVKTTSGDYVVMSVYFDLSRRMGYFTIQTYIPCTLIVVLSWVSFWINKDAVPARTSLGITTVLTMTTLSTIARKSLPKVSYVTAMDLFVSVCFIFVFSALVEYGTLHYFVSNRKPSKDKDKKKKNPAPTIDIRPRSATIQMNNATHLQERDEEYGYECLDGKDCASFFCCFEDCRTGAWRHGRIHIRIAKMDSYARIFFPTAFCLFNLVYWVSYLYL
T2 sequence (P63138 26-474): as the sequence (P63138 26-474 E179C) above, with C154E counted along it
T2 sequence (P62813 28-455): as the sequence (P62813 28-455) above
T2 sequence (P18508 39-466 partner): as the sequence (P18508 39-466 partner) above

The EC50 is the concentration that produces a half-maximal response. Regarding `NCc1cc(=O)[nH]o1` [MSC, muscimol], the half-maximal effective concentration (EC50) was 12.5 mM in assay [1] and 0.009 mM in assay [2].
